Assay results taken from patent US12661353B2, “SPT5 inhibitors and uses thereof” (Yeda Research and Development Co. Ltd., priority 2020, dated 2026).
pIC50: −log10 of the molar value.

How the values were obtained:
His-Spt5 (fused to Spt4) = molecular target: T1, His-Spt5 (fused to Spt4) (Homo sapiens, UniProt O00267); assay: Binding assay by intrinsic fluorescence of purified His-Spt5 (fused to Spt4)
T1 construct: His-Rpb1 and His-Spt5 (fused to Spt4 to increase its stability) were each expressed in E. coli; Spt4 (fusion partner); His tag (N); made in house; host or cells: E. coli; purified on nickel agarose beads
Procedure: Binding assay—In order to measure binding of the indicated compound to Spt5 and/or Pol II; Spt5-Spt4 or Rpb1 fused to a histidine (His) tag were expressed in E. coli (SEQ ID Nos: 2-3, 5-6 and 81) and purified on nickel agarose beads as described in Ashkenazi et al. 2016. The proteins were incubated for 10 minutes with increasing concentrations of the indicated compound in a black 384 wells microplate in a total volume of 20 μl. Binding was assessed by measuring the changes in the intrinsic fluorescence (280 nm) using Cytation™ 5 (BioTek).
Two identified compounds, SPI-21 and SPI-18, were further validated for their direct interaction with either Spt5 or Rpb1 CC domain. […] Using the purified proteins, fluorescence intensity measurements were performed in the presence of increasing concentrations of SPI-21 or SPI-18. This method analyzes binding by monitoring the changes in the intrinsic fluorescence of the proteins as a consequence of conformational changes. […]
Direct interaction with either the Spt5 or the Rpb1 CC domain of SPI-21 and SPI-18 was further validated. […] Using the purified proteins, fluorescence intensity measurements were performed in the presence of increasing concentrations of SPI-21 and SPI-18. This method analyzes binding by monitoring the changes in the intrinsic fluorescence of the proteins as a consequence of conformational changes. […]

[1] = molecular target: T2, endogenous Spt4/Spt5-Pol II complex (Homo sapiens, UniProt O00267+P24928); assay: Co-immunoprecipitation of endogenous Spt4/Spt5-Pol II complex, HeLa lysates; type: binding; details: 50 μM
T2 construct: endogenous in cells; host or cells: HeLa cell lysate, immunoprecipitated with anti-Spt5 antibody
Procedure: Co-immunoprecipitation (CO-IP)—HeLa cells were detached from a 10 cm dish with ice-cold PBS and a cell scraper, centrifuged for 5 minutes at 2,000 rpm and re-suspended in 200 μl lysis buffer (20 mM Tris-HCl pH 8, 400 mM NaCl, 2 mM EDTA, 0.5% NP-40, 10% glycerol) to which a protease inhibitor cocktail (1:100) and PMSF (200 μM) were freshly added. The lysates were rotated for 10 minutes at 4° C.; and centrifuged for 15 minutes at 13,000 rpm. Following, the supernatants were diluted with lysis buffer without NaCl to reach a final concentration of 100 mM NaCl. Cell lysates were then incubated at 4° C. overnight with an anti-Spt5 antibody (Tadashi Wada et al., 1998 Genes and Development. PMID: 9450929) or rabbit IgG (SC-2025, Santa Cruz Biotechnology), followed by 2 hours incubation at 4° C. with Protein A/G Sepharose beads (GE Healthcare). Following, the samples were washed 3 times and incubated for 2 hours at 4° C. with DMSO (vehicle control) or the indicated compound. The immune-precipitated proteins were detected by SDS-PAGE followed by western blot using an anti-Spt5, anti-Pol II (ab817, Abcam) or anti-Spt4 (Kim D K. et al, Genes to cells 2003 PMID: 12653964).
In the next step, co-immunoprecipitation in the presence of SPI-21 or SPI-18 was performed to test their effect of endogenous Spt4/Spt5-Pol II complex. […]

mutant (Q111) Htt = assay: Htt mRNA levels in Q111 striatal cells, qPCR; type: cell-based, mouse; details: Q111 striatal cells, 48 hours; further: key: + represent a statistically significant effect
Procedure: Cell culture—HEK293T, HeLa, MCF7, Jurkat and mouse embryonic fibroblasts (MEFs) cells were grown and maintained in Dulbecco's modified Eagle's medium supplemented with 10% fetal calf serum (Gibco) and 1% penicillin-streptomycin. To avoid NF-κB activity, HeLa cells were kept from reaching confluence and re-plated no more than 10 times following initial thawing. To induce NF-κB activity, cells were treated with […] recombinant human TNF-α (Peprotech) for the indicated times. STHdh Q111 and STHdh Q7 striatal cell lines (Coriell Institute for Medical Research) were grown in Dulbecco's modified Eagle's medium supplemented with 10% fetal calf serum (Gibco), 1% penicillin-streptomycin and 0.4 mg/ml G418 at 33° C. The cells were re-plated no more than 5-6 times, as recommended.
Huntington's disease (HD) is an inherited genetic disorder caused by expansion trinucleotide CAG repeats (36 and higher) encoding glutamine (Q) in the huntingtin (Htt) gene. Expression of the mutant gene in neurons of the striatum and the frontal cortex leads to degeneration of neuronal cells that control body movements, emotions and intellect. […] To examine the potential effect of SPIs in this context, striatal cell lines established from wild type (Q7) or from mutant (Q111) Htt knock-in mice were used. In these cell lines the coding region of the first exon of the mouse Htt gene was replaced with the same region of human wild type (Q7) or mutant (Q111) Htt, as schematically shown in FIG. 6A. The two cell lines were treated for 48 hours with the identified SPIs and following the levels of Htt mRNA were determined.
The compounds were tested as described in Example 4 hereinabove. In brief, Q111 (or Q7, where indicated) expressing Striatal cells were treated with the tested compound at the indicated concentrations for 48 hours. Then, RNA was extracted and levels of Htt mRNA were determined by qRT-PCR and normalized to β-actin. The data was analysed using GraphPad Prism software.

HeLa cells = assay: Cells viability assay (CellTiter-Glo), HeLa; type: cell-based, human; details: increasing concentrations, 48 h
Procedure: Cells viability assay—_HeLa cells were plated in an opaque-walled 96 well plate (50,000 cells per well) and treated with increasing concentrations of the tested SPI compounds (e.g., SPI-21 or SPI-18) for 48 hours. After equilibrating the plate and its contents at room temperature for 30 minutes, […] (1:1) of CellTiter-Glo® Reagent (G7571, Promega) was added to each well and shook for 2 minutes to induce cell lysis. Following 10 minutes incubation at room temperature, the luminescent signal was detected using the Cytation 5 instrument.
Spt5 was reported to be essential for cell growth and survival in mammalian cells (Komori et al., 2009).

Spt5 activities = assay: Combined effects on the various Spt5 activities (summary of Examples 1-4); type: cell-based

In the case of COc1ccc(C=CC(=O)c2cc(O)ccc2O)cc1 [SPI-21], the “effect on intrinsic fluorescence of Spt5” value (His-Spt5 (fused to Spt4)) was “no significant effect”, the “effect on Spt5-Pol II binding (co-immunoprecipitation)” value [1] was “did not disrupt Spt5-Pol II binding” and the “Down-regulating transcription of Mutant Htt (i.e. inhibiting transcription elongation of mutant Htt gene induced by Spt5)” value (mutant (Q111) Htt) was “+”. For the same compound, the cellular viability (HeLa cells) was “dramatically diminish cellular viability in a dose-dependent manner” and the “classification by effect on the various Spt5 activities, in words” value (Spt5 activities) was “affect all the tested Spt5 activities”.

Nc1ccccc1SC(CC(=O)c1cccs1)c1cccs1 (stereo not shown) [SPI-18] was tested, and the pIC50 (His-Spt5 (fused to Spt4)) was 4.40, the “effect on Spt5-Pol II binding (co-immunoprecipitation)” value [1] was “did not disrupt Spt5-Pol II binding” and the “Down-regulating transcription of Mutant Htt (i.e. inhibiting transcription elongation of mutant Htt gene induced by Spt5)” value (mutant (Q111) Htt) was “+”. For the same compound, the cellular viability (HeLa cells) was “dramatically diminish cellular viability in a dose-dependent manner” and the “classification by effect on the various Spt5 activities, in words” value (Spt5 activities) was “inhibited mainly the positive activity of Spt5 with little or no effect on proximal promoter pausing”.
